Results reported in US5288723A, “A composition and a method of using veratridine and epinephrine as a local anesthetic” (priority 1991, dated 1994).
“Also recorded” adds a separate entry of the source. Where two headings read alike, the source gives them in different places.

Key:
[1] = tested on: A-fibers of rabbit vagus nerve; assay: Extracellular recording of compound action potentials (APc), desheathed vagus nerve, A-fibers; design: species or system New Zealand white rabbit; settings: for inhibition at 0.5 µM / activity at 0.5 µM: Oryctolagus cuniculus, 0.5 μM VTD; for inhibition at 0.5 µM: 1.25 h, mean ± SEM; for activity at 0.5 µM: read-out: Amplitude of single APc elevation relative to amplitude at beginning of VTD exposure
Method: (§1) Adult male New Zealand white rabbits (3±0.5 kg) were pretreated intramuscularly with a mixture of ketamine (200 mg), xylazine (20 mg) and atropine (0.4 mg) for sedation. Ten minutes after this treatment, the animals were anesthetized with diethyl ether. After cessation of respiration, a longitudinal skin incision was made, and the cervical portion of both vagus nerves was dissected. The vagus nerves were temporarily stored at room temperature (22° C.) in a beaker containing modified HEPES Liley (HL) solution stirred constantly by aeration with a mixture of 95% oxygen and 5% carbon dioxide.
(§2) The modified HL solution used for bathing the nerve and subsequent drug perfusion consisted of (in mM): NaCl, 118.0; KCl, 5.0; CaCl2 2H2 0, 2.0; MgCl2 6H2 0, 1.0; α-D(+)-glucose, 11.0; NaHC03, 25.0; and N-2-hydroxy-ethylpiperazine-N-2-ethanesulfonic acid (HEPES) buffer, 5.0 mM. The pH was adjusted to 7.4±0.05 by addition of 1 N NaOH. The perfusion solution was bubbled with a gas mixture of 95% oxygen and 5% carbon dioxide at a vigorous rate just before flowing onto the nerve. The pH was stabilized by the HEPES buffer and maintained at 7.4.
(§3) VTD free base (no. V-5754, lot 58F-7828, Sigma, St. Louis, Mo.) was stored in a desiccator below 0° C. and was used to prepare a 2 mM stock solution in dimethyl sulfoxide [DMSO], Fisher Scientific, lot 861316), which also was stored at below 0° C. VTD, a steroidal alkaloid (FIG. 2A) that is produced by certain lilies, has a solubility limited to approximately 10^-3 M in aqueous slat solutions [Kupchan and By, "The Veratrum Group," in Alkaloids, Vol. 10, Manske, R.H.F. (ed.), New York, Academic Press (1968), pp. 193-285]. The stock VTD solution was diluted to final concentrations of 0.2-10 μM by the addition of HL. The maximum equivalent content of DMSO is 0.5%, and in three control experiments we detected no change in electrophysiologic behavior with 1% DMSO.
(§4) The nerves were cleaned and desheathed by microdissection before mounting in an airtight chamber (FIG. 2B) [Gissen et al., Anesthesiology 53:467-474 (1980)]. Petroleum jelly (White Petrolatum, Denison Laboratories) seals separated a central, 11-mm length of the nerve from the lateral pools, used for stimulating and recording with electrodes made of platinum wire. The central section of the chamber (volume 0.25 ml) was perfused with HL solution at 0.5 ml.min.^-1. The lateral pools containing the moistened ends of the nerves adsorbed to the electrodes were filled with paraffin oil. The APc s were propagated over 21 mm, from the stimulating to the recording electrodes, with the proximal recording electrodc located 4.5 mm from the edge of the central, drug exposure chamber. Thus, measured APc s were conducted in nerve exposed to drug for half of the conduction pathway, and had been conducting through drug-free medium over a distance containing at least two or three nodes of Ranvier (in the fastest-conducting fibers), before reaching the recording electrodes.
(§5) The signal from the nerve was amplified 50 times (model AK 475 operational amplifier, Metametrics, Carlisle, Mass.) and passed to the oscilloscope preamplifiers (model 5A 22N, Tektronix). The preparation was not considered acceptable unless the APc signals from the nerve exceeded 1.5 mV for A-fibers, 0.5 mV for B-fibers, and 0.3 mV for C-fibers.
(§6) Each nerve was exposed to only one VTD concentration, and each concentration was tested in four or five separate nerves, except in tie sheathed nerves, for which only two nerves were used. The temperature was 20°-22° C.
(§7) The standard protocol used for testing the action of VTD was to record the APc elevations in control HL solution for 30-60 min. before adding VTD; for 60-75 min. during VTD application; and for 60-75 min. after replacement with VTD-free HL. […]

[2] = tested on: C-fibers of rabbit vagus nerve; assay: Extracellular recording of compound action potentials (APc), desheathed vagus nerve, C-fibers; design: species or system New Zealand white rabbit; settings: for inhibition at 0.5 µM: 1 h, mean ± SEM; for inhibition at 0.5 µM / activity at 0.5 µM: 0.5 μM VTD; for activity at 0.5 µM: read-out: Amplitude of single APc elevation relative to amplitude at beginning of VTD exposure
Method: as §1, §2, §3, §4, §5, §6, §7

Which results are given for `COc1ccc(C(=O)OC2CCC3(C)C4CCC5C6(O)CC(O)C7(O)C(CN8CC(C)CCC8C7(C)O)C6(O)CC53OC24O)cc1OC` (centres unmarked) [VTD, veratridine]?
Response of A-fibers during repetitive stimulation compared with drug-free solutions ([1]; 2 μM VTD, 100-Hz stimulation): almost identical to that in drug-free solutions before and after VTD exposure; Single-stimulus APc after VTD compared with no-VTD controls ([1]; A-fibers, 0.5 μM, 60 min. in VTD, P>0.05): no significant difference; Decline of APc elevation at the second stimulation ([1]; A-fibers, 2 μM VTD, 100 Hz, normal refractory behavior): about 15%; Reversal of use-dependent depression by washing ([1]; A-fibers, VTD-free HL wash): did not reverse; inhibition at 0.5 µM ([1]; A-fibers, 100 Hz, after 75 min. in VTD, P < 0.001 vs control, read-out: Percent inhibition of the tenth APc in a train compared to the first, VTD): 25.3 ± 3.5%; inhibition at 0.5 µM ([1]; A-fibers, 100 Hz, after 75 min. of wash, read-out: Percent inhibition of the tenth APc in a train compared to the first, HL (Wash)): 27 ± 2.8%; activity at 0.5 µM ([1]; A-fibers, during VTD exposure): 117 ± 7%; activity at 0.5 µM ([1]; A-fibers, wash period): 123 ± 14%; Use-dependent reduction of APc by VTD, A-fibers ([1]; up to 2 μM): modified little; also recorded: inconsequential for A-fibers; Use-dependent reduction of APc by VTD, C-fibers ([2]; 0-2.0 μM (FIG. 7C), at relatively low frequencies): diminished most; also recorded: greatest for the C-fiber component; Use-dependent inhibition and slowing of C-fiber APc ([2]; 2 μM VTD, 5 Hz, second through tenth APc, 15-20 min. exposure): slowed conduction and reduced amplitude; Single-stimulus APc after VTD compared with no-VTD controls ([2]; C-fibers, 0.5 μM, 60 min. in VTD, P<0.005): significant enhancement; Longer latency of the second wave vs the first wave ([2]; C-fibers, 2 μM VTD, 5 Hz (FIG. 6B)): about 20%; Reversal of use-dependent depression by washing ([2]; C-fibers, VTD-free HL wash): partial reversal; Recovery time of APc after stimulation ceased ([2]; C-fibers, sometimes as long as, depending on VTD concentration): 1 to 2 min; inhibition at 0.5 µM ([2]; Oryctolagus cuniculus, C-fibers, 10 Hz, after 60 min. in VTD, P < 0.001 vs control, read-out: Percent inhibition of the tenth APc in a train compared to the first, VTD): 54.6 ± 3.8%; inhibition at 0.5 µM ([2]; Oryctolagus cuniculus, C-fibers, 10 Hz, after 60 min. wash, read-out: Percent inhibition of the tenth APc in a train compared to the first, HL (Wash)): 34.6 ± 3.8%; activity at 0.5 µM ([2]; Oryctolagus cuniculus, C-fibers, during VTD exposure): 111 ± 5%; activity at 0.5 µM ([2]; Oryctolagus cuniculus, C-fibers, wash period): 133 ± 15%; inhibition at 0.2 µM ([2]; Oryctolagus cuniculus, 0.2 μM VTD, 10 Hz, after about 1 h of wash-out, read-out: C-fiber use-dependent inhibition after VTD wash-out): 22%
